Measurements from patent US20050020680A1, “Hydroxyfattysulfonic acid analogs” (priority 2001, published 2005).

What was measured:
Rat neutrophils = assay: Elastase production by fMLP stimulation (elastase release inhibition); assay type: cell-based; details: elastase release from cytochalasin B-primed rat neutrophils, fMLP 1 μM, 10 minutes preincubation
Description: Test for Elastase Production by fMLP (N-formyl-Met-Leu-Phe)Stimulation
Rat neutrophils preparation was obtained 15-18 hours after intraperitoneal injection of a 1% sterile casein solution in saline (120 mL/kg). Cells were harvested by peritoneal lavage after the decapitation. The lavage fluid was ice-cold PBS (Phosphate-Buffered Saline). Peritoneal exudates were pooled, centrifuged and suspended in HBSS (Hanks' Balanced Salt Solution) at 1×10^7 cells/mL. Cytochalasin B (final concentration: 5 μg/mL) were added to prime the cells. The cells were added into a 96-well culture plate (190 μL/well) and then the compounds of the present invention at various concentrations (10^−7 to 3×10^−5 M) were added and incubated at 37° C. in an atmosphere of 5% CO2 in air. […]
Elastase activity in the incubated supernatant was measured using a specific elastase substrate, N-succinyl-L-alanyl-L-alanyl-L-proline-valine-MCA (Peptide Institue, Inc., Osaka), 0.12 mM in 50 mM Tris-HCl (pH 8.0). […]
Elastase release-inhibiting activity (inhibition ratio) was calculated according to the following equation: Inhibition ratio (%) […]×100 wherein A stands for a fluorescence intensity when fMLP (1 μM) was added; B stands for a fluorescence intensity when fMLP (1 μM) and the present compound were added; and C stands for a fluorescence intensity when fMLP (1 μM) was not added. […]

rat t-MCAo model = assay: Infarct volume in rat transient MCA occlusion (t-MCAo) model; assay type: in vivo, Wistar rats; details: 0.1 mg/kg/min, intravenous 1 hour infusion immediately after reperfusion; 71 hrs after reperfusion; vs vehicle-treated group, p<0.05 Dunnett's test
Description: FIG. 1 represents an effect of compound 33 on infarct volume in rat t-MCAo model.
The infract volumes of total (open column), cortex (closed column) and subcortex (hatched column) were determined 71 hrs after reperfusion. Data are presented as mean±SEM. *p<0.05 vs vehicle-treated group (Dunnett's test).
Effect on the Infarct Volume in Rat Transient MCA Occlusion (t-MCAo) Model.
Adult male Wistar rats (200-250 g) were anesthetized with 2% halothane in air. The right internal carotid artery (ICA) was carefully dissected. A silicon-coated suture (18 mm-long) was inserted into the ICA. Body temperature was maintained at 37° C. with a heating pad. […] After 1 hour of MCA occlusion, the thread was removed to allow reperfusion of the ischemic area. Rats were received intravenously 1 hour-infusion of vehicle (10% of HP-β-CD) or compound 33 dissolved in vehicle immediately after reperfusion.
To measure infarct volume, rats were killed at 71 hours of reperfusion. Brains were perfused transcardially with physiological saline, and removed from skulls, cut into 2-mm coronal sections. The slices were immersed in 2% triphenyltetrazolium chloride (TTC) solution at 37° C. for 30 minutes. All values were presented as mean±SEM. For statistical analyses, Dunnett's multiple-range test was used.

Row | Compound | IC50 (Rat neutrophils) [µM] | IC50 (Rat neutrophils; Neutrophil) [µM] | cortex infarct volume (rat t-MCAo model) | total infarct volume (rat t-MCAo model)
1 | CCCC[C@@H](O)/C=C\CCCCCCC/C=C\CCCS(=O)(=O)O [Compound 23, Sodium (R)-(4Z, 13Z)-15-hydroxynonadeca-1,13-diene-1-sulfonate] | 9.67 |  |  | 
2 | CCCC[C@@H](O)/C=C\CCCCCCCCCCCCS(=O)(=O)[O-].[Na+] [Compound 33, Sodium (R)-(Z)-15-hydroxynonadec-13-ene-1-sulfonate] |  | 15 | significantly reduced | significantly reduced
